Patent US5346913A, “N-iodopropargyl hydantoin compounds, compositions, preparation, and use as antimicrobial agents” (Rohm and Haas Company, priority 1992, dated 1994)
Converted amounts (≈) assume the structure as drawn. Read-outs that look alike come from different tables or passages of the source.

Key:
[1] = test system: Pseudoperonospora cubensis; assay: whole plant or invertebrate; type: in vivo; conditions: for pest or weed control at 200 ppm: Pseudoperonospora cubensis, in Cucumis sativus, 168 h, read-out: % Control CDM; for percent disease control CDM: in vivo
Staphylococcus aureus = assay: MIC, broth two-fold serial dilution test, Staphylococcus aureus (Saur); type: cell-based
From the text: (§1) The compounds identified with a prime (') were the non-iodo analogues of the invention compounds, i.e., the compounds of formula III or IV. All data are reported in ppm of active ingredient required to control the respective organism. The indication "No In." means that the compound had no inhibitory activity at 500 ppm which was the maximum tested, and so if the "No In." compound were active, the minimum inhibitory concentration would be above 500 ppm. The comparative tests were not run side-by-side, but were run on different days using the same methods. […] A minimum inhibitory concentration (MIC) value is obtained using a broth, two-fold serial dilution test performed as follows: […] A volume of the stock solution is dispensed into culture media to give an initial starting test concentration of the compound of 500 ppm or 250 ppm. When the test is ready to be done, each vessel in the dilution series, except the first vessel, contains an equal volume of compound free broth. The first vessel contains twice the volume of broth with the starting concentration of test compound. One half of the broth from the first vessel is transferred to the second vessel. After being mixed, one half the resulting volume is removed from the second vessel and transferred to the third vessel. […] Each vessel is then inoculated with a cell suspension of the appropriate test organism. Bacteria are grown in broth and fungi on agar […] is grown in cooling tower media for a time and at a temperature appropriate to the species being tested. At the end of the growth period, the broth is vortexed to disperse the cells. In the case of fungi, the spores are harvested by pipetting water onto the slant and dislodging the spores with a sterile loop. The cell/spore suspension is standardized by controlling incubation time, temperature, and the volume of the diluent. The suspension is then used to inoculate the vessels containing the broth compound. The vessels are then incubated at the appropriate temperature. After the incubation, the vessels are examined for growth/no growth. The MIC is defined as the lowest concentration of compound that results in complete inhibition of growth of the test organism. BACTERIA: Pseudomonas fluorescens (Ps.fl), gram negative; Pseudomonas aerugenosa (Ps.ae), gram negative; Escherichia coli (E.c), gram negative; and Staphylococcus aureus (S.a), gram positive.

[2] = test system: Pellicularia filamentosa (f. sp. sasiki); assay: whole plant or invertebrate; type: in vivo; conditions: 120 h; read-out: % Control RSB
Phytophthora infestans = assay: whole plant or invertebrate; type: in vivo; conditions: for pest or weed control at 200 ppm / pest or weed control at 50 ppm: Phytophthora infestans, in Solanum lycopersicum, 96 h; for pest or weed control at 50 ppm: read-out: % Control TLB, secondary greenhouse test (Table 5), 50 ppm; for percent disease control TLB: advanced greenhouse test (Table 6), 0.25 kg a.i./ha
Piricularia oryzae = assay: whole plant or invertebrate; type: in vivo; conditions: Pyricularia oryzae, read-out: % Control RB
Aspergillus niger = assay: MIC, broth two-fold serial dilution test, Aspergillus niger (Anig); type: cell-based; conditions: TSB
From the text: as §1, with “INDUSTRIAL FUNGI: Aspergillus niger (A.n); Aureobasidium pullulans (A.p)” for “BACTERIA: Pseudomonas fluorescens (Ps.fl), gram negative; Pseudomonas aerugenosa (Ps.ae), gram negative; Escherichia coli (E.c), gram negative; and Staphylococcus aureus (S.a), gram positive.”

Septoria nodorum = conditions: in vivo
TLB, CDM, WLR, SNW, WPM = conditions: in vivo
Escherichia coli = assay: MIC, broth two-fold serial dilution test, Escherichia coli (Ecol); type: cell-based
From the text: as §1

[3] = test system: Puccinia recondita (f. sp. tritici Races PKB and PLD); assay: whole plant or invertebrate; type: in vivo; conditions: for pest or weed control at 50 ppm / pest or weed control at 200 ppm: Puccinia recondita, 240 h, read-out: % Control WLR
[4] = test system: Erysiphe graminis (f. sp. tritici); assay: whole plant or invertebrate; type: in vivo; conditions: for pest or weed control at 50 ppm / pest or weed control at 200 ppm: Blumeria graminis, read-out: % Control WPM; for percent disease control WPM: in vivo
Pseudomonas aerugenosa = assay: MIC, broth two-fold serial dilution test, Pseudomonas aerugenosa (Psae); type: cell-based
From the text: as §1

[5] = read-out: % Control TLB, greenhouse test (Table 4), 200 ppm
[6] = read-out: % Control TLB, secondary greenhouse test (Table 5), 200 ppm

Compound: CC1C(=O)N(c2ccc(F)cc2)C(=O)N1CC#CI (centres unmarked) [Compound 3, 1-(3-iodo-2-propynyl)-3-(4-fiuorophenyl)-5-methylhydantoin]
- pest or weed control at 200 ppm [1]: 50%
- percent disease control CDM [1]: 100.0%
- MIC (Staphylococcus aureus; M9G): > 500 µg/mL
- MIC (Staphylococcus aureus; TSB): > 500 µg/mL
- pest or weed control at 50 ppm [2]: 0%
- pest or weed control at 200 ppm [2]: 0%
- pest or weed control at 200 ppm (Phytophthora infestans; [5]): 0%
- pest or weed control at 50 ppm (Phytophthora infestans): 0%
- pest or weed control at 200 ppm (Phytophthora infestans; [6]): 95%
- percent disease control TLB (Phytophthora infestans): 52.0%
- pest or weed control at 50 ppm (Piricularia oryzae): 50%
- pest or weed control at 200 ppm (Piricularia oryzae): 50%
- MIC (Aspergillus niger): 4 µg/mL (≈ 10.7 µM)
- percent disease control SNW (Septoria nodorum): 47.0%
- percent disease control Average (TLB, CDM, WLR, SNW, WPM): 67.8%
- MIC (Escherichia coli; M9G): > 500 µg/mL
- MIC (Escherichia coli; TSB): 250 µg/mL (≈ 672 µM)
- pest or weed control at 50 ppm [3]: 0%
- pest or weed control at 200 ppm [3]: 95%
- percent disease control WLR ([3]; in vivo): 75.0%
- pest or weed control at 50 ppm [4]: 50%
- pest or weed control at 200 ppm [4]: 40%
- percent disease control WPM [4]: 65.0%
- MIC (Pseudomonas aerugenosa; M9G): > 500 µg/mL
- MIC (Pseudomonas aerugenosa; TSB): > 500 µg/mL

Compound: O=C1N(c2cc(Cl)cc(Cl)c2)C(=O)C2(CCCC2)N1CC#CI [Compound 4, 1-(3-iodo-2-propynyl)-3-(3,5-dichlorophenyl)-5,5-spirocyclopentane-hydantoin]
- pest or weed control at 200 ppm [1]: 50%
- percent disease control CDM [1]: 100.0%
- MIC (Staphylococcus aureus; M9G): > 500 µg/mL
- MIC (Staphylococcus aureus; TSB): > 500 µg/mL
- pest or weed control at 50 ppm [2]: 50%
- pest or weed control at 200 ppm [2]: 50%
- pest or weed control at 200 ppm (Phytophthora infestans; [5]): 95%
- pest or weed control at 50 ppm (Phytophthora infestans): 0%
- pest or weed control at 200 ppm (Phytophthora infestans; [6]): 0%
- percent disease control TLB (Phytophthora infestans): 30.0%
- pest or weed control at 50 ppm (Piricularia oryzae): 50%
- pest or weed control at 200 ppm (Piricularia oryzae): 50%
- MIC (Aspergillus niger): 16 µg/mL (≈ 34.5 µM)
- percent disease control SNW (Septoria nodorum): 53.0%
- percent disease control Average (TLB, CDM, WLR, SNW, WPM): 65.2%
- MIC (Escherichia coli; M9G): > 500 µg/mL
- MIC (Escherichia coli; TSB): > 500 µg/mL
- pest or weed control at 50 ppm [3]: 0%
- pest or weed control at 200 ppm [3]: 0%
- percent disease control WLR ([3]; in vivo): 80.0%
- pest or weed control at 50 ppm [4]: 0%
- pest or weed control at 200 ppm [4]: 25%
- percent disease control WPM [4]: 63.0%
- MIC (Pseudomonas aerugenosa; M9G): > 500 µg/mL
- MIC (Pseudomonas aerugenosa; TSB): > 500 µg/mL

Compound: O=C1N(c2cc(Cl)cc(Cl)c2)C(=O)C2(CCCCC2)N1CC#CI [Compound 5, 1-(3-iodo-2-propynyl)-3-(3,5-dichlorophenyl)-5,5-spirocyclohexane-hydantoin]
- pest or weed control at 200 ppm [1]: 40%
- percent disease control CDM [1]: 100.0%
- MIC (Staphylococcus aureus; M9G): > 500 µg/mL
- MIC (Staphylococcus aureus; TSB): > 500 µg/mL
- pest or weed control at 50 ppm [2]: 25%
- pest or weed control at 200 ppm (Phytophthora infestans; [5]): 95%
- pest or weed control at 50 ppm (Phytophthora infestans): 0%
- percent disease control TLB (Phytophthora infestans): 28.0%
- pest or weed control at 50 ppm (Piricularia oryzae): 50%
- MIC (Aspergillus niger): > 500 µg/mL
- percent disease control SNW (Septoria nodorum): 72.0%
- percent disease control Average (TLB, CDM, WLR, SNW, WPM): 69.4%
- MIC (Escherichia coli; M9G): > 500 µg/mL
- MIC (Escherichia coli; TSB): > 500 µg/mL
- pest or weed control at 50 ppm [3]: 0%
- pest or weed control at 200 ppm [3]: 0%
- percent disease control WLR ([3]; in vivo): 80.0%
- pest or weed control at 50 ppm [4]: 50%
- pest or weed control at 200 ppm [4]: 0%
- percent disease control WPM [4]: 67.0%
- MIC (Pseudomonas aerugenosa; M9G): > 500 µg/mL
- MIC (Pseudomonas aerugenosa; TSB): > 500 µg/mL

Compound: CC1C(=O)N(c2ccc(Cl)cc2)C(=O)N1CC#CI (centres unmarked) [Compound 2, 1-(3-iodo-2-propynyl)-3-(4-chlorophenyl)-5-methylhydantoin]
- pest or weed control at 200 ppm [1]: 0%
- percent disease control CDM [1]: 98.0%
- MIC (Staphylococcus aureus; M9G): > 500 µg/mL
- MIC (Staphylococcus aureus; TSB): > 500 µg/mL
- pest or weed control at 50 ppm [2]: 0%
- pest or weed control at 200 ppm [2]: 0%
- pest or weed control at 200 ppm (Phytophthora infestans; [5]): 0%
- pest or weed control at 50 ppm (Phytophthora infestans): 50%
- pest or weed control at 200 ppm (Phytophthora infestans; [6]): 75%
- percent disease control TLB (Phytophthora infestans): 38.0%
- pest or weed control at 50 ppm (Piricularia oryzae): 50%
- pest or weed control at 200 ppm (Piricularia oryzae): 75%
- MIC (Aspergillus niger): 2 µg/mL (≈ 5.15 µM)
- percent disease control SNW (Septoria nodorum): 90.0%
- percent disease control Average (TLB, CDM, WLR, SNW, WPM): 72.4%
- MIC (Escherichia coli; M9G): > 500 µg/mL
- MIC (Escherichia coli; TSB): 500 µg/mL (≈ 1290 µM)
- pest or weed control at 50 ppm [3]: 80%
- pest or weed control at 200 ppm [3]: 85%
- % Control WLR ([3]; in vivo): 90%
- percent disease control WLR ([3]; in vivo): 83.0%
- pest or weed control at 50 ppm [4]: 50%
- pest or weed control at 200 ppm [4]: 75%
- percent disease control WPM [4]: 53.0%
- MIC (Pseudomonas aerugenosa; M9G): > 500 µg/mL
- MIC (Pseudomonas aerugenosa; TSB): > 500 µg/mL
